# Laboratory results: US4096252A, “4-Trifluoromethylbenzoic acid derivatives as thromboembolic agents” (priority 1976, dated 1978)
# “And” between values parts separate entries of the source, which are not always exact repeats. Equal entries are not always repeated. Where two headings read alike, the source gives them in different places.
# Assays:
# rat platelet aggregation = test: In vitro inhibition of rat platelet aggregation (Born and Cross method); format: cell-based; settings: Rattus norvegicus, Platelet, rat plasma; for inhibition at 830 µM: plasma concentration 0.83×10^-3 molar; for inhibition at 2080 µM: plasma concentration 2.08×10^-3 molar; for inhibition at 4150 µM: plasma concentration 4.15×10^-3 molar; for inhibition at 8300 µM: plasma concentration 8.30×10^-3 molar
# Procedure: Platelet aggregation was measured according to the method of Born and Cross (8) by using rat and human plasma.
# [1] = tested on: blood coagulation factors and fibrinolysis; format: in vivo, human; settings: oral; for Euglobin lysis time: Von Kaulas's test / Activated kaolin test / Activated partial thromboplastin test: APTI / Howell's test / Plasma prothrombine test: Quick test / Serum prothrombin time / Bleeding time, Duke test / Clotting time / Thromboelastogram K / Thromboelastogram r / Hematocrit / Platelet count: mean ± s.e.m.; for Euglobin lysis time: Von Kaulas's test: decrease vs control = drug effect; for Activated kaolin test / Activated partial thromboplastin test: APTI / Howell's test / Plasma prothrombine test: Quick test / Serum prothrombin time: decrease vs control = inhibitory effect; for Bleeding time, Duke test / Clotting time / Thromboelastogram K / Thromboelastogram r: increase vs control = inhibitory effect; for anticoagulant action (in words) / blood fibrinolytic activity (in words): humans; for Clot retraction / Degradation products of fibrinogen: DPF / Parrot's test / Tourniquet test: days not separated
# Procedure: The values r and k (in parameter 15 of Table V) correspond to blood (b). Their significance appears from the Figure.
# (§1) In the in vivo tests on humans, the two selected compounds were administered per os during six consecutive days at equimolar doses: 200 mg three times a day of 2-acetoxy-4-trifluoromethylbenzoic acid and 248 mg three times a day of 2-phosphonoxy-4-trifluoromethylbenzoic acid.
# (§2) Blood was collected on the first, fourth and seventh day of the test and the platelet aggregation induced by ADP, epinephrine and collagen was determined according to the above-mentioned Born method.
# The potential anticoagulant and fibrinolytic activity of the claimed compounds has therefore likewise been investigated. For this purpose, with the same blood samples used for the determination of in vivo antiaggregating action on humans, the following parameters were examined: clotting time, bleeding time (Duke test), tourniquet test, Parrot's test, plasma prothrombine test (Quick test), activated partial thromboplastin test (APTT), activated Kaolin test, Howell's test, serum prothrombin time, euglobulin lysis time, Von Kaula's test, degradation products of fibrinogen (DPF), platelet count, clot retraction, hematocrit and thromboelastogram.
# EFFECT OF 2-ACETOXY-4-TRIFLUOROMETHYLBENZOIC ACID AND 2-PHOSPHONOXY-4-TRIF
# ZOIC ACID ON BLOOD COAGULATION FACTORS AND FIBRINOLYSIS*.
# treated with 2-acetoxy-4-trifluoromethylbenzoic acid and on 6 humans
# treated with 2-phos phonoxy-4-trifluoromethylbenzoic acid. An increase of
# the mean values (±s.e.m.) of parameters 1 and 2 or a decrease of
# parameters 5,6,7,8,9,10 and 11 with respect to control, mean an inhibitor
# effec of drugs on the blood coagulation and fibrinolysis.
# **An increase of r and k values with respect to control, indicates an
# inhibitory effect of the drugs on blood coagulation and also on platelet
# aggregation. These figures are indicated in FIG. 2 which corresponds to a
# normal thromboelastogram.
# [2] = tested on: human platelet aggregation; test: Human platelet aggregation induced by ADP and epinephrine after oral administration to humans; format: in vivo; settings: Tables III and IV
# Procedure: as §1, §2
# (§3) EFFECT OF 2-ACETOXY-4-TRIFLUOROMETHYLBENZOIC ACID
# (§4) AND 2-PHOSPHONOXY-4-TRIFLUOROMETHYLBENZOIC
# ACID ON PLATELET AGGREGATION INDUCED BY ADP AND
# EPINEPHRINE AFTER ORAL ADMINISTRATION TO HUMANS*
# *The figures express the concentration (μM) that produces irreversible
# [3] = tested on: human platelet aggregation; test: In vitro inhibition of human platelet aggregation (Born and Cross method); format: cell-based
# Procedure: Platelet aggregation was measured according to the method of Born and Cross (8) by using rat and human plasma. The results are summarized below in Tables I and II.
# Key : PC = Plasma Concentration: PAI = Platelet Aggregation
# *The percent of inhibition was calculated using the method described by
# McKenzie (Proc. Soc. Exp. Biol. Med. 137: 662, 1971).
# [4] = tested on: human platelet aggregation; test: Human platelet aggregation induced by collagen after oral administration to humans; format: in vivo; settings: collagen 33.3 μg/m, one value per human; for y (collagen-induced aggregation curve): decrease vs control = inhibition; for delay (collagen-induced aggregation curve) / x (collagen-induced aggregation curve): increase vs control = inhibition
# Procedure: The significance of the parameters employed in Table IV (x, y and delay) is indicated; and
# as §1, §2, §3, §4
# ACID ON PLATELET AGGREGATION INDUCED BY
# COLLAGEN AFTER ORAL ADMINISTRATION TO HUMANS*.
# *An increase of delay time and x and a decrease of y with respect to
# control indicate an inhibitory effect on platelet aggregation (see FIG.
# gastric mucosa = settings: rat, in vivo
# Procedure: For this reason this compound has not been included in further in vivo experimentation. However, the other two compounds were well tolerated and satisfactory low acute toxicity values were found (approximately 500 mg/kg for both substances).
# [5] = ADP 4.1×10^-6 M, read-out: Platelet Aggregation Inhibition (PAI)
# [6] = Collagen 33.3 μg/ml, read-out: Platelet Aggregation Inhibition (PAI)
# [7] = ADP 1.6×10^-6 M, plasma concentration 6.25×10^-3 molar, read-out: Platelet Aggregation Inhibition (PAI)
# [8] = ADP 1.6×10^-6 M, plasma concentration 8.30×10^-3 molar, read-out: Platelet Aggregation Inhibition (PAI)
# [9] = Collagen 33.3 mcg/ml, plasma concentration 8.30×10^-3 molar, read-out: Platelet Aggregation Inhibition (PAI)
# [10] = read-out: Platelet Aggregation Inhibition (PAI), ADP 4.1×10^-6 M
# [11] = read-out: Platelet Aggregation Inhibition (PAI), Collagen 33.3 μg/ml
smiles,measurement,setting,value
CC(=O)Oc1cc(C(F)(F)F)ccc1C(=O)O [2-acetoxy-4-trifluoromethylbenzoic acid],inhibition at 830 µM,rat platelet aggregation; [5],26%
same,inhibition at 2080 µM,rat platelet aggregation; [5],37.5%
same,inhibition at 4150 µM,rat platelet aggregation; [5],51.9%
same,inhibition at 8300 µM,rat platelet aggregation; [5],93.7%
same,inhibition at 4150 µM,rat platelet aggregation; [6],34.5%
same,inhibition at 8300 µM,rat platelet aggregation; [6],52.7%
same,Euglobin lysis time: Von Kaulas's test,[1]; 4th day,140.0 ± 12.3 min
same,Activated kaolin test,[1]; 4th day,0.797±0.03
same,Activated partial thromboplastin test: APTI,[1]; 4th day,0.720±0.03
same,Howell's test,[1]; 4th day,0.723±0.04
same,Plasma prothrombine test: Quick test,[1]; 4th day,0.938±0.02
same,Serum prothrombin time,[1]; 4th day,38.8 ± 2.7 s
same,"Bleeding time, Duke test",[1]; 4th day,133.0 ± 19.3 s
same,Clotting time,[1]; 4th day,521.6 ± 29.7 s
same,Thromboelastogram K,[1]; 4th day,24.6±1.6 cm
same,Thromboelastogram r,[1]; 4th day,19.6±1.2 cm
same,Euglobin lysis time: Von Kaulas's test,[1]; 7th day,136.1 ± 11.5 min
same,Activated kaolin test,[1]; 7th day,0.890±0.02
same,Activated partial thromboplastin test: APTI,[1]; 7th day,0.890±0.03
same,Howell's test,[1]; 7th day,0.807±0.04
same,Plasma prothrombine test: Quick test,[1]; 7th day,0.933±0.02
same,Serum prothrombin time,[1]; 7th day,37.3 ± 3.9 s
same,"Bleeding time, Duke test",[1]; 7th day,116.0 ± 13.8 s
same,Clotting time,[1]; 7th day,526.6 ± 25.6 s
same,Thromboelastogram K,[1]; 7th day,22.1±1.5 cm
same,Thromboelastogram r,[1]; 7th day,21.6±3.6 cm
same,anticoagulant action (in words),[1],exert an anticoagulant action
same,blood fibrinolytic activity (in words),[1],increase of the blood fibrinolytic activity
same,Clot retraction,[1],NEGATIVE
same,Degradation products of fibrinogen: DPF,[1],NEGATIVE
same,Parrot's test,[1],POSITIVE IN TWO HUMANS
same,Tourniquet test,[1],NEGATIVE
same,in vivo action on human platelet aggregation (in words),[2],far more effective compound
same,inhibition at 6250 µM,[3]; [7],22.5%
same,inhibition at 8300 µM,[3]; [8],38.6%
same,inhibition at 4100 µM,"[3]; Collagen 33.3 mcg/ml, plasma concentration 4.10×10^-3 molar, read-out: Platelet Aggregation Inhibition (PAI)",37.5%
same,inhibition at 8300 µM,[3]; [9],62%
same,inhibition at 17000 µM,"[3]; Epinephrine 1.4×10^-6 M, plasma concentration 17.0×10^-3 molar, read-out: Platelet Aggregation Inhibition (PAI)",74%
same,y (collagen-induced aggregation curve),[4]; 4th day,41 mm and 45 mm
same,delay (collagen-induced aggregation curve),[4]; 4th day,60 xc and 72 xc
same,x (collagen-induced aggregation curve),[4]; 4th day,22 mm and 24 mm and 17 mm and 25 mm
same,delay (collagen-induced aggregation curve),[4]; 7th day,108 xc and 60 xc and 96 xc and 72 xc and 84 xc
O=C(O)c1ccc(C(F)(F)F)cc1O [2-hydroxy-4-trifluoromethylbenzoic acid],inhibition at 6250 µM,"rat platelet aggregation; ADP 4.1×10^-6 M, plasma concentration 6.25×10^-3 molar, read-out: Platelet Aggregation Inhibition (PAI)",60.2%
same,inhibition at 8300 µM,rat platelet aggregation; [5],89.2%
same,inhibition at 4150 µM,rat platelet aggregation; [6],27.2%
same,inhibition at 8300 µM,rat platelet aggregation; [6],48.3%
same,gastro-intestinal disturbances (in words),gastric mucosa,"high incidence of serious gastro-intestinal disturbances, including bleeding of the gastric mucosa and peptic ulcers"
same,inhibition at 6250 µM,[3]; [7],70%
same,inhibition at 8300 µM,[3]; [8],100%
same,inhibition at 8300 µM,[3]; [9],58%
same,inhibition at 17000 µM,"[3]; Collagen 33.3 mcg/ml, plasma concentration 17.0×10^-3 molar, read-out: Platelet Aggregation Inhibition (PAI)",75%
same,inhibition at 3300 µM,"[3]; Epinephrine 1.4×10^-6 M, plasma concentration 3.30×10^-3 molar, read-out: Platelet Aggregation Inhibition (PAI)",32%
same,inhibition at 8100 µM,"[3]; Epinephrine 1.4×10^-6 M, plasma concentration 8.10×10^-3 molar, read-out: Platelet Aggregation Inhibition (PAI)",91%
O=C(O)c1ccc(C(F)(F)F)cc1OP(=O)(O)O [2-phosphonoxy-4-trifluoromethylbenzoic acid],inhibition at 830 µM,rat platelet aggregation; [10],11.2%
same,inhibition at 2080 µM,rat platelet aggregation; [10],23.1%
same,inhibition at 4150 µM,rat platelet aggregation; [10],57.5%
same,inhibition at 8300 µM,rat platelet aggregation; [10],69.8%
same,inhibition at 4150 µM,rat platelet aggregation; [11],45.5%
same,inhibition at 8300 µM,rat platelet aggregation; [11],94.5%
same,Hematocrit,[1]; 4th day,42.0±1.0
same,Platelet count,[1]; 4th day,253.3±10.5 per mm^3 ×10^3
same,Euglobin lysis time: Von Kaulas's test,[1]; 4th day,145.1 ± 9.3 min
same,Activated kaolin test,[1]; 4th day,0.768±0.05
same,Activated partial thromboplastin test: APTI,[1]; 4th day,0.823±0.04
same,Howell's test,[1]; 4th day,0.873
same,Plasma prothrombine test: Quick test,[1]; 4th day,0.966±0.02
same,Serum prothrombin time,[1]; 4th day,34.8 ± 2.6 s
same,"Bleeding time, Duke test",[1]; 4th day,155.0 ± 19.6 s
same,Clotting time,[1]; 4th day,527.5 ± 30.8 s
same,Thromboelastogram K,[1]; 4th day,25.3±2.7 cm
same,Thromboelastogram r,[1]; 4th day,17.8±2.0 cm
same,Hematocrit,[1]; 7th day,45.0±1.4
same,Platelet count,[1]; 7th day,223.3±12.8 per mm^3 ×10^3
same,Euglobin lysis time: Von Kaulas's test,[1]; 7th day,136.6 ± 9.0 min
same,Activated kaolin test,[1]; 7th day,0.960±0.04
same,Activated partial thromboplastin test: APTI,[1]; 7th day,0.960±0.01
same,Howell's test,[1]; 7th day,0.793±0.07
same,Plasma prothrombine test: Quick test,[1]; 7th day,0.986±0.02
same,Serum prothrombin time,[1]; 7th day,33.0 ± 1.5 s
same,"Bleeding time, Duke test",[1]; 7th day,112.5 ± 10.8 s
same,Clotting time,[1]; 7th day,520.0 ± 28.6 s
same,Thromboelastogram K,[1]; 7th day,19.9±1.9 cm
same,Thromboelastogram r,[1]; 7th day,15.0±1.3 cm
same,anticoagulant action (in words),[1],exert an anticoagulant action
same,blood fibrinolytic activity (in words),[1],increase of the blood fibrinolytic activity
same,Clot retraction,[1],NEGATIVE
same,Degradation products of fibrinogen: DPF,[1],NEGATIVE
same,Parrot's test,[1],POSITIVE IN FOUR HUMANS
same,Tourniquet test,[1],NEGATIVE
same,in vivo action on human platelet aggregation (in words),[2],only a slight in vivo action on human platelet aggregation
same,inhibition at 6250 µM,"[3]; read-out: Platelet Aggregation Inhibition (PAI), ADP 1.6×10^-6 M, plasma concentration 6.25×10^-3 molar",56.6%
same,inhibition at 8300 µM,"[3]; read-out: Platelet Aggregation Inhibition (PAI), ADP 1.6×10^-6 M, plasma concentration 8.30×10^-3 molar",60.8%
same,inhibition at 4100 µM,"[3]; read-out: Platelet Aggregation Inhibition (PAI), Collagen 33.3 mcg/ml, plasma concentration 4.10×10^-3 molar",0%
same,inhibition at 8300 µM,"[3]; read-out: Platelet Aggregation Inhibition (PAI), Collagen 33.3 mcg/ml, plasma concentration 8.30×10^-3 molar",12.6%
same,inhibition at 17000 µM,"[3]; read-out: Platelet Aggregation Inhibition (PAI), Epinephrine 1.4×10^-6 M, plasma concentration 17.0×10^-3 molar",59%
same,y (collagen-induced aggregation curve),[4]; 4th day,49 mm and 42 mm and 36 mm and 37 mm and 41 mm
same,delay (collagen-induced aggregation curve),[4]; 4th day,36 xc and 24 xc and 48 xc
same,x (collagen-induced aggregation curve),[4]; 4th day,14 mm and 16 mm and 17 mm and 22 mm and 18 mm
same,delay (collagen-induced aggregation curve),[4]; 7th day,48 xc and 24 xc and 36 xc
same,x (collagen-induced aggregation curve),[4]; 7th day,13 mm and 14 mm and 15 mm and 23 mm and 12 mm
